The test has as its system P388 leukemia ip, CD2F1 mice, survival T/C. Put plainly: NCI In Vivo Anticancer Drug Screen. Data for tumor model P388 Leukemia (intraperitoneal) in CD2F1 (CDF1) mice. Conditions: endpoint: median survival time, higher = longer survival. The method, boiled down:
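Mice carrying the transplanted tumor received test compound or vehicle. Survival was recorded in each group, and the value is the treated-group measurement divided by that of the vehicle-treated control group.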

[1] abbreviates: dose: 12.5 mg/kg/injection, schedule: Q01DX005 (ip), vehicle: saline.
The mark [2] stands for this setting: dose: 25.0 mg/kg/injection, schedule: Q01DX005 (ip), vehicle: saline.
Where [3] appears, read: dose: 50.0 mg/kg/injection, schedule: Q01DX005 (ip), vehicle: saline with Tween-80.
The mark [4] stands for this setting: dose: 100.0 mg/kg/injection, schedule: Q01DX005 (ip), vehicle: saline with Tween-80.
[5] abbreviates: dose: 200.0 mg/kg/injection, schedule: Q01DX005 (ip), vehicle: saline with Tween-80.
Setting [6] is: dose: 60.0 mg/kg/injection, schedule: Q01DX005 (ip), vehicle: saline with Tween-80.
Where [7] appears, read: dose: 120.0 mg/kg/injection, schedule: Q01DX005 (ip), vehicle: saline with Tween-80.
[8] abbreviates: dose: 240.0 mg/kg/injection, schedule: Q01DX005 (ip), vehicle: saline with Tween-80.
Setting [9] is: dose: 60.0 mg/kg/injection, schedule: Q01DX005 (ip), vehicle: Klucel (hydroxypropylcellulose) (HPC).
Where [10] appears, read: dose: 120.0 mg/kg/injection, schedule: Q01DX005 (ip), vehicle: Klucel (hydroxypropylcellulose) (HPC).
Where [11] appears, read: dose: 240.0 mg/kg/injection, schedule: Q01DX005 (ip), vehicle: Klucel (hydroxypropylcellulose) (HPC).

Where “and” joins values, the source holds several entries; their conditions need not be identical. Equal entries are not always repeated. Inconclusive results and toxic doses are left out.

Regarding `CN1CCC/C1=N\C(=Nc1ccccc1)N1CCCC1`, the T/C was 105 % of control (dose: 6.25 mg/kg/injection, schedule: Q01DX005 (ip), vehicle: saline); 102 % of control under setting [1]; 103 % of control under setting [2].
As to `CC(C)N1NC1(C)C` (centres undefined), the T/C runs as follows: under setting [3], 107 % of control; under setting [4], 107 % of control; under setting [5], 100 % of control.
As to `CCNC(=O)N(CC(N)=O)c1ncc([N+](=O)[O-])s1`, the T/C reads like this: (dose: 6.25 mg/kg/injection, schedule: Q01DX001 (ip), vehicle: saline) 105 % of control; (dose: 12.5 mg/kg/injection, schedule: Q01DX001 (ip), vehicle: saline) 103 % of control; (dose: 25.0 mg/kg/injection, schedule: Q01DX001 (ip), vehicle: saline) 104 % of control; (dose: 50.0 mg/kg/injection, schedule: Q01DX001 (ip), vehicle: saline) 100 % of control and 103 % of control; (dose: 100.0 mg/kg/injection, schedule: Q01DX001 (ip), vehicle: saline) 106 % of control and 97 % of control.
In the case of `C=Cc1ccccc1` (tested in a mixture with another compound), the T/C runs as follows: under setting [1], 98 % of control; under setting [2], 99 % of control.
Consider `CCn1cc(C(=O)O)c(=O)c2nc(N3CCOCC3)sc21`, for which the T/C reads like this: under setting [6], 106 % of control; under setting [7], 95 % of control; under setting [8], 98 % of control.
For `Cc1cc(C)nc(NS(=O)(=O)c2ccc(NC(=O)c3cccnc3Nc3cccc(Cl)c3)cc2)n1`, the T/C runs as follows: under setting [6], 105 % of control; under setting [7], 115 % of control; under setting [8], 112 % of control.
In the case of `COc1cc2c(c(O)c1O)-c1ccc(OC)c(=O)cc1C(NC(C)=O)CC2` (centres undefined), the T/C (dose: 1.25 mg/kg/injection, schedule: Q01DX009 (ip), vehicle: water) was 97 % of control; the T/C (dose: 2.5 mg/kg/injection, schedule: Q01DX009 (ip), vehicle: water) was 97 % of control; the T/C (dose: 5.0 mg/kg/injection, schedule: Q01DX009 (ip), vehicle: water) is 100 % of control; the T/C (dose: 10.0 mg/kg/injection, schedule: Q01DX009 (ip), vehicle: water) is 100 % of control; the T/C (dose: 20.0 mg/kg/injection, schedule: Q01DX009 (ip), vehicle: water) is 97 % of control; the T/C (dose: 40.0 mg/kg/injection, schedule: Q01DX009 (ip), vehicle: distilled water + Tween-80) was 108 % of control. The T/C (dose: 80.0 mg/kg/injection, schedule: Q01DX009 (ip), vehicle: distilled water + Tween-80) is 122 % of control.
As for `Cc1c2c(c(O)c3sccc13)C(C)(C)OC2=O`, the T/C reads like this: under setting [3], 101 % of control; under setting [4], 99 % of control; under setting [5], 97 % of control.
Regarding `N#CCCCOCCCOCCCOCCCOCCCOCCCC#N`, the T/C was 102 % of control (dose: 8.75 mg/kg/injection, schedule: Q01DX005 (ip), vehicle: saline with Tween-80); 100 % of control (dose: 17.5 mg/kg/injection, schedule: Q01DX005 (ip), vehicle: saline with Tween-80); 100 % of control (dose: 35.0 mg/kg/injection, schedule: Q01DX005 (ip), vehicle: saline with Tween-80); 121 % of control under setting [3]; 108 % of control (dose: 70.0 mg/kg/injection, schedule: Q01DX005 (ip), vehicle: saline with Tween-80); 110 % of control under setting [5].
As for `O=C(NCCc1ccc(Cl)cc1)c1ccc(Cl)cc1`, the T/C by setting is: under setting [6], 96 % of control; under setting [7], 97 % of control; under setting [8], 91 % of control.
Turning to `CC1(C)Cc2[nH]c3ccccc3c2C(C)(C)N1`, the T/C is 105 % of control and 99 % of control under setting [6]; 100 % of control under setting [7]; 91 % of control under setting [8].
On to `CCCCC([Se])=Nc1ccc(Br)cc1`, for which the T/C is 106 % of control (dose: 6.25 mg/kg/injection, schedule: Q01DX009 (ip), vehicle: Klucel (hydroxypropylcellulose) (HPC)); 104 % of control (dose: 12.5 mg/kg/injection, schedule: Q01DX009 (ip), vehicle: Klucel (hydroxypropylcellulose) (HPC)); 104 % of control (dose: 25.0 mg/kg/injection, schedule: Q01DX009 (ip), vehicle: Klucel (hydroxypropylcellulose) (HPC)).
On to `COc1cc2c(cc1C(C)c1ccc(OC(C)C)cc1)OCO2` (centres undefined), for which the T/C (dose: 25.0 mg/kg/injection, schedule: Q01DX005 (ip), vehicle: saline with Tween-80) is 103 % of control; the T/C under setting [3] was 98 % of control; the T/C under setting [4] is 100 % of control; the T/C under setting [5] was 98 % of control.
Regarding `Cc1cc(NCCCCCCNc2cc(C)nc3cc(N)ccc23)c2ccc(N)cc2n1`, the T/C (dose: 25.0 mg/kg/injection, schedule: Q01DX009 (ip), vehicle: other) was 150 % of control and 158 % of control.
Consider `O=C(O)C(CS)NC1CC(=O)N(Cc2ccccc2)C1=O` (centres undefined), for which the T/C was 110 % of control (dose: 50.0 mg/kg/injection, schedule: Q01DX005 (ip), vehicle: Klucel (hydroxypropylcellulose) (HPC)); 103 % of control (dose: 100.0 mg/kg/injection, schedule: Q01DX005 (ip), vehicle: Klucel (hydroxypropylcellulose) (HPC)); 103 % of control (dose: 200.0 mg/kg/injection, schedule: Q01DX005 (ip), vehicle: Klucel (hydroxypropylcellulose) (HPC)).
Consider `CC1CC(C)(C)C2=NCCN21` (centres undefined), for which the T/C was 105 % of control (dose: 6.25 mg/kg/injection, schedule: Q01DX009 (ip), vehicle: water); 100 % of control (dose: 12.5 mg/kg/injection, schedule: Q01DX009 (ip), vehicle: water); 106 % of control (dose: 15.0 mg/kg/injection, schedule: Q01DX005 (ip), vehicle: saline); 107 % of control (dose: 25.0 mg/kg/injection, schedule: Q01DX009 (ip), vehicle: water); 106 % of control (dose: 30.0 mg/kg/injection, schedule: Q01DX005 (ip), vehicle: saline); 107 % of control (dose: 50.0 mg/kg/injection, schedule: Q01DX009 (ip), vehicle: water). Also, the T/C (dose: 60.0 mg/kg/injection, schedule: Q01DX005 (ip), vehicle: saline) is 99 % of control and 100 % of control.
For `S=c1[nH]ccc2ccccc12`, the T/C (dose: 50.0 mg/kg/injection, schedule: Q01DX009 (ip), vehicle: Klucel (hydroxypropylcellulose) (HPC)) is 100 % of control; the T/C (dose: 100.0 mg/kg/injection, schedule: Q01DX009 (ip), vehicle: Klucel (hydroxypropylcellulose) (HPC)) is 101 % of control; the T/C (dose: 200.0 mg/kg/injection, schedule: Q01DX009 (ip), vehicle: Klucel (hydroxypropylcellulose) (HPC)) was 119 % of control; the T/C (dose: 400.0 mg/kg/injection, schedule: Q01DX009 (ip), vehicle: Klucel (hydroxypropylcellulose) (HPC)) was 105 % of control.
In the case of `CC(=O)c1c(O)ccc2nc3ccccc3nc12`, the T/C was 105 % of control (dose: 50.0 mg/kg/injection, schedule: Q01DX009 (ip), vehicle: suspension in saline); 111 % of control (dose: 100.0 mg/kg/injection, schedule: Q01DX009 (ip), vehicle: suspension in saline); 93 % of control (dose: 200.0 mg/kg/injection, schedule: Q01DX009 (ip), vehicle: suspension in saline).
As to `CC1CCN(C)CC1`, the T/C under setting [2] is 104 % of control; the T/C (dose: 50.0 mg/kg/injection, schedule: Q01DX005 (ip), vehicle: saline) was 97 % of control; the T/C (dose: 100.0 mg/kg/injection, schedule: Q01DX005 (ip), vehicle: saline) was 105 % of control.
Consider `Nc1nc(SCC(=O)O)[nH]c(=O)c1NS(=O)(=O)c1cccc([N+](=O)[O-])c1`, for which the T/C is, setting by setting: under setting [9], 96 % of control; under setting [10], 93 % of control; under setting [11], 93 % of control.
As to `O=S(=O)(Nc1ccn(-c2ccccc2)n1)c1ccc(NCc2c3ccccc3nc3cc(Cl)ccc23)cc1`, the T/C is, setting by setting: under setting [6], 99 % of control; under setting [7], 91 % of control; under setting [8], 93 % of control.
Take `COc1ccc(Cl)cc1NC(=O)c1ccco1`: the T/C runs as follows: under setting [6], 96 % of control; under setting [7], 99 % of control; under setting [8], 98 % of control.
With `O=C1C2=C(Nc3cc(Cl)ccc3N2)OC1c1ccc2c(c1)OCO2` (centres undefined), the T/C was 101 % of control under setting [9], 98 % of control under setting [10] and 101 % of control under setting [11].
As for `COC(=O)C(Cc1ccccc1C#N)(OC)OC`, the T/C reads like this: under setting [3], 98 % of control; under setting [4], 101 % of control; under setting [5], 98 % of control.

The record behind these values is PubChem BioAssay AID330 (DTP/NCI, 2004).
